Results: patent US8846698B2, “Pyrrolo[2,3-d]pyrimidine tropomysin-related kinase inhibitors” (Pfizer Limited, priority 2011, dated 2014)

Biological target: TRKA (Homo sapiens (Human), UniProt P04629)
Experiment: Isolated TRK enzyme assay (HTRF KinEASE-TK), TRKA
Type: biochemical
Details: read-out: Trka enzyme (IC50)

TRKA, sequence (P04629 441-796): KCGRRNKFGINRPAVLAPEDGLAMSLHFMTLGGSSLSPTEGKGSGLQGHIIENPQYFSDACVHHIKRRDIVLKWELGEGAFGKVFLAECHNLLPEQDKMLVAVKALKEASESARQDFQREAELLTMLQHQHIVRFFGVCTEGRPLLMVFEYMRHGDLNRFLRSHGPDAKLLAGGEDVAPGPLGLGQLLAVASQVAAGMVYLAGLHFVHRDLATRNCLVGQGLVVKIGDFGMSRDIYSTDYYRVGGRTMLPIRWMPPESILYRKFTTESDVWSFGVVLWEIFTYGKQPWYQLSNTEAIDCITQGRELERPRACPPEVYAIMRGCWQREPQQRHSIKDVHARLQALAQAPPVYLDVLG

CC(C)n1cc(C(=O)c2cncc(NC(=O)Cc3ccc(Cl)cn3)c2)c2cnc(N)nc21 [Example 242, N-{5-[(2-amino-7-isopropyl-7H-pyrrolo[2,3-d]pyrimidin-5-yl)carbonyl]pyridin-3-yl}-2-(5-chloropyridin-2-yl)acetamide]
IC50: 8.71 nM

CC1(n2cc(C(=O)c3cncc(NC(=O)Cc4ccc(Cl)cn4)c3)c3cncnc32)COC1 [Example 310, 2-(5-chloropyridin-2-yl)-N-(5-{[7-(3-methyloxetan-3-yl)-7H-pyrrolo[2,3-d]pyrimidin-5-yl]carbonyl}pyridin-3-yl)acetamide]
IC50: 98.4 nM

CC(C)n1cc(C(=O)c2cncc(NC(=O)c3ncccc3Cl)c2)c2cncnc21 [Example 494, 3-Chloro-pyridine-2-carboxylic acid[5-(7-isopropyl-7H-pyrrolo[2,3-d]pyrimidine-5-carbonyl)-pyridin-3-yl]-amide]
IC50: 2570 nM

CC(C)n1cc(C(=O)c2cncc(NC(=O)c3nnc4n3CCCC4)c2)c2cncnc21 [Example 503, 5,6,7,8-Tetrahydro-1,2,4-triazolo[4,3-a]pyridine-3-carboxylic acid [5-(7-isopropyl-7H-pyrrolo[2,3-d]pyrimidine-5-carbonyl)-pyridin-3-yl]-amide]
IC50: 963 nM

CC(C)n1cc(C(=O)c2cncc(NC(=O)Cc3nn(C)c4ccc(Cl)cc34)c2)c2cncnc21 [Example 124, 2-(5-chloro-1-methyl-1H-indazol-3-yl)-N-{5-[(7-isopropyl-7H-pyrrolo[2,3-d]pyrimidin-5-yl)carbonyl]pyridin-3-yl}acetamide]
IC50: 244 nM

CC(C)n1cc(C(=O)c2cncc(NC(=O)Cc3ccc(C#N)c(C(F)(F)F)c3)c2)c2cncnc21 [Example 72, 2-[4-cyano-3-(trifluoromethyl)phenyl]-N-{5-[(7-isopropyl-7H-pyrrolo[2,3-d]pyrimidin-5-yl)carbonyl]pyridin-3-yl}acetamide]
IC50: 63.3 nM

CC(C)n1cc(C(=O)c2cncc(NC(=O)c3cncnc3N)c2)c2cncnc21 [Example 420, 4-Amino-pyrimidine-5-carboxylic acid [5-(7-isopropyl-7H-pyrrolo[2,3-d]pyrimidine-5-carbonyl)-pyridin-3-yl]-amide]
IC50: 9800 nM

CC(C)(CO)n1cc(C(=O)c2cncc(NC(=O)Cn3cc(C(F)(F)F)cn3)c2)c2cnc(N)nc21 [Example 563, N-{5-[2-Amino-7-(2-hydroxy-1,1-dimethyl-ethyl)-7H-pyrrolo[2,3-d]pyrimidine-5-carbonyl]-pyridin-3-yl}-2-(4-trifluoromethyl-pyrazol-1-yl)-acetamide]
IC50: 3.11 nM

CC(C)n1cc(C(=O)c2cncc(NC(=O)c3cc4occc4[nH]3)c2)c2cncnc21 [Example 431, 4H-Furo[3,2-b]pyrrole-5-carboxylic acid [5-(7-isopropyl-7H-pyrrolo1[2,3-d]pyrimidine-5-carbonyl)-pyridin-3-yl]-amide]
IC50: 235 nM

CC(CO)(CO)n1cc(C(=O)c2cncc(NC(=O)Cc3ccc(Cl)cn3)c2)c2cncnc21 [Example 237, 2-(5-chloropyridin-2-yl)-N-[5-({7-[2-hydroxy-1-(hydroxymethyl)-1-methylethyl]-7H-pyrrolo[2,3-d]pyrimidin-5-yl}carbonyl)pyridin-3-yl]acetamide]
IC50: 73.9 nM

Cc1cccc(C(=O)Nc2cncc(C(=O)c3cn(C(C)C)c4ncncc34)c2)n1 [Example 440, 6-Methyl-pyridine-2-carboxylic acid[5-(7-isopropyl-7H-pyrrolo[2,3-d]pyrimidine-5-carbonyl)-pyridin-3-yl]-amide]
IC50: 676 nM

CC(C)n1cc(C(=O)c2cncc(NC(=O)Cn3nnnc3-c3ccccc3)c2)c2cncnc21 [Example 378, N-[5-(7-Isopropyl-7H-pyrrolo[2,3-d]pyrimidine-5-carbonyl)-pyridin-3-yl]-2-(5-phenyl-tetrazol-1-yl)-acetamide]
IC50: 716 nM

CC(C)n1cc(C(=O)c2cncc(NC(=O)Cc3ccc4nnnn4n3)c2)c2cncnc21 [Example 157, N-{5-[(7-isopropyl-7H-pyrrolo[2,3-d]pyrimidin-5-yl)carbonyl]pyridin-3-yl}-2-tetrazolo[1,5-b]pyridazin-6-ylacetamide]
IC50: 174 nM

COc1cc(C(=O)Nc2cncc(C(=O)c3cn(C(C)C)c4ncncc34)c2)nc2c(C)nccc12 [Example 483, 4-Methoxy-8-methyl-1,7-naphthyridine-2-carboxylic acid [5-(7-isopropyl-7H-pyrrolo[2,3-d]pyrimidine-5-carbonyl)-pyridin-3-yl]-amide]
IC50: 118 nM

CC(C)n1cc(C(=O)c2cncc(NC(=O)Cc3ccc(C#N)c(F)c3)c2)c2cncnc21 [Example 76, 2-(4-cyano-3-fluorophenyl)-N-{5-[(7-isopropyl-7H-pyrrolo[2,3-d]pyrimidin-5-yl)carbonyl]pyridin-3-yl}acetamide]
IC50: 173 nM

CC(C)n1cc(C(=O)c2cncc(NC(=O)Cc3ccc(C(F)(F)F)cc3)c2)c2cnc(N)nc21 [Example 244, N-{5-[(2-amino-7-isopropyl-7H-pyrrolo[2,3-d]pyrimidin-5-yl)carbonyl]pyridin-3-yl}-2-[4-(trifluoromethyl)phenyl]acetamide]
IC50: 4.69 nM

Cc1c[nH]c(C(=O)Nc2cncc(C(=O)c3cn(C(C)C)c4ncncc34)c2)n1 [Example 391, 4-Methyl-1H-imidazole-2-carboxylic acid [5-(7-isopropyl-7H-pyrrolo[2,3-d]pyrimidine-5-carbonyl)-pyridin-3-yl]-amide]
IC50: 246 nM

Cc1cncnc1C(=O)Nc1cncc(C(=O)c2cn(C(C)C)c3ncncc23)c1 [Example 413, 5-Methyl-pyrimidine-4-carboxylic acid [5-(7-isopropyl-7H-pyrrolo[2,3-d]pyrimidine-5-carbonyl)-pyridin-3-yl]-amide]
IC50: 9800 nM

CC(C)n1cc(C(=O)c2cncc(NC(=O)Cc3cccc(OC4CC4)c3)c2)c2cncnc21 [Example 74, 2-[3-(cyclopropyloxy)phenyl]-N-{5-[(7-isopropyl-7H-pyrrolo[2,3-d]pyrimidin-5-yl)carbonyl]pyridin-3-yl}acetamide]
IC50: 1210 nM

Cc1ccc(CC(=O)Nc2cncc(C(=O)c3cn(C(C)(C)CO)c4nc(N)ncc34)c2)nc1 [Example 556, N-{5-[2-Amino-7-(2-hydroxy-1,1-dimethyl-ethyl)-7H-pyrrolo[2,3-d]pyrimidine-5-carbonyl]-pyridin-3-yl}-2-(5-methyl-pyridin-2-yl)-acetamide]
IC50: 3.16 nM

Cc1coc2cnc(C(=O)Nc3cncc(C(=O)c4cn(C(C)C)c5ncncc45)c3)cc12 [Example 439, 3-Methyl-furo[2,3-c]pyridine-5-carboxylic acid [5-(7-isopropyl-7H-pyrrolo[2,3-d]pyrimidine-5-carbonyl)-pyridin-3-yl]-amide]
IC50: 22.5 nM

CC(C)n1cc(C(=O)c2cncc(NC(=O)c3ccncc3)c2)c2cncnc21 [Example 489, N-[5-(7-Isopropyl-7H-pyrrolo[2,3-d]pyrimidine-5-carbonyl)-pyridin-3-yl]-isonicotinamide]
IC50: 9800 nM

Cn1cc(C(=O)c2cncc(NC(=O)Cc3ccc(OC(F)(F)F)cc3)c2)c2cncnc21 [Example 196, N-{5-[(7-methyl-7H-pyrrolo[2,3-d]pyrimidin-5-yl)carbonyl]yridine-3-yl}-2-[4-(trifluoromethoxy)phenyl]acetamide]
IC50: 791 nM

Cc1cc(C(=O)Nc2cncc(C(=O)c3cn(C(C)C)c4ncncc34)c2)n(C)n1 [Example 513, 2,5-Dimethyl-2H-pyrazole-3-carboxylic acid [5-(7-isopropyl-7H-pyrrolo[2,3-d]pyrimidine-5-carbonyl)-pyridin-3-yl]-amide]
IC50: 1890 nM

CC(C)n1cc(C(=O)c2cncc(NC(=O)COc3ccc(OC(F)(F)F)cc3)c2)c2cncnc21 [Example 348, N-(5-{[7-(propan-2-yl)-7H-pyrrolo[2,3-d]pyrimidin-5-yl]carbonyl}pyridin-3-yl)-2-[4-(trifluoromethoxy)phenoxy]acetamide]
IC50: 36.6 nM

Cc1[nH]nc(-c2ccccc2)c1CC(=O)Nc1cncc(C(=O)c2cn(C(C)C)c3ncncc23)c1 [Example 163, N-{5-[(7-isopropyl-7H-pyrrolo[2,3-d]pyrimidin-5-yl)carbonyl]pyridin-3-yl}-2-(5-methyl-3-phenyl-1H-pyrazol-4-yl)acetamide]
IC50: 1840 nM

Cc1cc2nnc(C(=O)Nc3cncc(C(=O)c4cn(C(C)C)c5ncncc45)c3)c(C)n2n1 [Example 498]
IC50: 2340 nM

CC(C)n1cc(C(=O)c2cncc(NC(=O)c3cnc4ccccc4c3)c2)c2cncnc21 [Example 398, Quinoline-3-carboxylic acid [5-(7-isopropyl-7H-pyrrolo[2,3-d]pyrimidine-5-carbonyl)-pyridin-3-yl]-amide]
IC50: 138 nM

CC(C)(C)n1cc(C(=O)c2cncc(NC(=O)Cc3ccc(C#N)cn3)c2)c2cnc(N)nc21 [Example 530, N-[5-(2-Amino-7-tert-butyl-7H-pyrrolo[2,3-d]pyrimidine-5-carbonyl)-pyridin-3-yl]-2-(5-cyano-pyridin-2-yl)-acetamide]
IC50: 5.9 nM

CC(C)n1cc(C(=O)c2cncc(NC(=O)c3cnc4cc[nH]c4c3)c2)c2cncnc21 [Example 505, 1H-Pyrrolo[3,2-b]pyridine-6-carboxylic acid [5-(7-isopropyl-7H-pyrrolo[2,3-d]pyrimidine-5-carbonyl)-pyridin-3-yl]-amide]
IC50: 1630 nM

CC(C)n1cc(C(=O)c2cncc(NC(=O)Cc3cn4cccnc4n3)c2)c2cncnc21 [Example 143, 2-imidazo[1,2-a]pyrimidin-2-yl-N-{5-[(7-isopropyl-7H-pyrrolo[2,3-d]pyrimidin-5-yl)carbonyl]pyridin-3-yl}acetamide]
IC50: 4730 nM

CC(C)n1cc(C(=O)c2cncc(NC(=O)Cn3cc(-c4cccc(O)c4)nn3)c2)c2cncnc21 [Example 377, 2-[4-(3-Hydroxy-phenyl)-1,2,3-triazol-1-yl]-N-[5-(7-isopropyl-7H-pyrrolo[2,3-d]pyrimidine-5-carbonyl)-pyridin-3-yl]-acetamide]
IC50: 2630 nM

COCC(C)(C)n1cc(C(=O)c2cncc(NC(=O)Cc3ccc(F)cn3)c2)c2cnc(N)nc21 [Example 548, N-{5-[2-Amino-7-(2-methoxy-1,1-dimethyl-ethyl)-7H-pyrrolo[2,3-d]pyrimidine-5-carbonyl]-pyridin-3-yl}-2-(5-fluoro-pyridin-2-yl)-acetamide]
IC50: 21.2 nM
